# Laboratory results: patent publication US8580829B2 (Boehringer Ingelheim International GmbH, priority 2010, dated 2013)
# Where two headings read alike, the source gives them in different places.
# Experiments:
# [1] = biological target: T1, recombinant human FLAP protein (Homo sapiens, UniProt P20292); assay: FLAP binding assay (Scintillation Proximity Assay, displacement of [125I]L-691,831); details: recombinant human FLAP membranes, [125I]L-691,831 probe; read-out: FLAP SPA IC50
# T1 construct: made in house; host or cells: Sf9 insect cells (100,000 x g membrane fraction)
# T1 sequence (P20292 1-161): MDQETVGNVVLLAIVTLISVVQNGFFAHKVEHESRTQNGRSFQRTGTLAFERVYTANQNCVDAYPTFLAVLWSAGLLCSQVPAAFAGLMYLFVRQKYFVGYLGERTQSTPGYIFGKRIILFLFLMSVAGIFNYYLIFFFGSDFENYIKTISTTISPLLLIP
# How it was run: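 WGA scintillation proximity beads were stirred 1 h with 5 μg of FLAP-containing membrane protein. The membranes came from baculovirus Sf9 cells, Dounce-lysed and spun to a 100,000×g pellet in buffer at pH 7.5.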
# [2] = system: synthesis of LTB4 in human whole blood; assay: human whole blood LTB4 production inhibition assay; format: cell-based; details: heparinized human whole blood, calcimycin 20 μM, read-out: hWB LTB4 IC50
# How it was run: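 Heparinized human whole blood preincubated with compound 15 min at 37 °C, then stimulated with calcimycin (20 μM final) for 30 min at 37 °C. Plasma LTB4 measured after low-speed centrifugation by antibody-based homogeneous time-resolved fluorescence.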
SMILES,IC50 [1],IC50 ([2]; Homo sapiens),IC50 [2]
"CCN(CC)C(=O)n1cc(-c2nc(C3(c4ccc(-c5cnc(N)nc5)cc4)CCC3)no2)cn1 [Example 211, 4-(3-{1-[4-(2-Amino-pyrimidin-5-yl)-phenyl]-cyclobutyl}-[1,2,4]oxadiazol-5-yl)-pyrazole-1-carboxylic acid diethylamide]",3 nM,89 nM,
"Nc1ncc(-c2ccc(C3(c4noc(-c5cnn(C(=O)N6CCOCC6)c5)n4)CCC3)cc2)cn1 [Example 212, [4-(3-{1-[4-(2-Amino-pyrimidin-5-yl)-phenyl]-cyclobutyl}-[1,2,4]oxadiazol-5-yl)-pyrazol-1-yl]-morpholin-4-yl-methanone]",2.2 nM,22 nM,
"CNC(=O)n1cc(-c2nc(C3(c4ccc(-c5cnc(N)nc5)cc4)CCC3)no2)cn1 [Example 213, 4-(3-{1-[4-(2-Amino-pyrimidin-5-yl)-phenyl]-cyclobutyl}-[1,2,4]oxadiazol-5-yl)-pyrazole-1-carboxylic acid methylamide]",0.85 nM,110 nM,
"Nc1ncc(-c2ccc(C3(c4noc(-c5cnc(N6CCNCC6)cn5)n4)CCC3)cc2)cn1 [Example 214, 5-(4-{1-[5-(3,4,5,6-Tetrahydro-2H-[1,2′]bipyrazinyl-5′-yl)-[1,2,4]oxadiazol-3-yl]-cyclobutyl}-phenyl)-pyrimidin-2-ylamine]",4 nM,,150 nM
"Cn1cc(-c2nc(C3(c4ccc(-c5ccc(N)nc5)cc4)CCC3)no2)cn1 [Example 215, 5-(4-{1-[5-(1-Methyl-1H-pyrazol-4-yl)-[1,2,4]oxadiazol-3-yl]-cyclobutyl}-phenyl)-pyridin-2-ylamine]",2.1 nM,26 nM,
"Nc1ncc(-c2ccc(C3(c4noc(-c5cnn(CCN6CCCC6=O)c5)n4)CCC3)cc2)cn1 [Example 216, 1-{2-[4-(3-{1-[4-(2-Amino-pyrimidin-5-yl)-phenyl]-cyclobutyl}-[1,2,4]oxadiazol-5-yl)-pyrazol-1-yl]-ethyl}-pyrrolidin-2-one]",1.3 nM,59 nM,
"CC(C)CNC(=O)Cn1cc(-c2nc(C3(c4ccc(-c5cnc(N)nc5)cc4)CCC3)no2)cn1 [Example 217, 2-[4-(3-{1-[4-(2-Amino-pyrimidin-5-yl)-phenyl]-cyclobutyl}-[1,2,4]oxadiazol-5-yl)-pyrazol-1-yl]-N-isobutyl-acetamide]",3.4 nM,81 nM,
"Nc1ncc(-c2ccc(C3(c4noc(-c5cnn(CC(=O)NC6CCOCC6)c5)n4)CCC3)cc2)cn1 [Example 218, 2-[4-(3-{1-[4-(2-Amino-pyrimidin-5-yl)-phenyl]-cyclobutyl}-[1,2,4]oxadiazol-5-yl)-pyrazol-1-yl]-N-(tetrahydro-pyran-4-yl)-acetamide]",1.2 nM,160 nM,
"CN1CCN(C(=O)Cn2cc(-c3nc(C4(c5ccc(-c6cnc(N)nc6)cc5)CCC4)no3)cn2)CC1 [Example 219, 2-[4-(3-{1-[4-(2-Amino-pyrimidin-5-yl)-phenyl]-cyclobutyl}-[1,2,4]oxadiazol-5-yl)-pyrazol-1-yl]-1-(4-methyl-piperazin-1-yl)-ethanone]",3.1 nM,140 nM,
"Cn1cc(-c2nc(C3(c4ccc(-c5cnc(N)cn5)cc4)CCC3)no2)cn1 [Example 220, 5-(4-{1-[5-(1-Methyl-1H-pyrazol-4-yl)-[1,2,4]oxadiazol-3-yl]-cyclobutyl}-phenyl)-pyrazin-2-ylamine]",0.7 nM,16 nM,
"Cc1cc(-c2ccc(C3(c4noc(-c5cnn(C)c5)n4)CCC3)cc2)cnc1N [Example 221, 3-Methyl-5-(4-{1-[5-(1-methyl-1H-pyrazol-4-yl)-[1,2,4]oxadiazol-3-yl]-cyclobutyl}-phenyl)-pyridin-2-ylamine]",1.9 nM,47 nM,
"Cc1nc(-c2ccc(C3(c4noc(-c5cnn(C)c5)n4)CCC3)cc2)cnc1N [Example 222, 3-Methyl-5-(4-{1-[5-(1-methyl-1H-pyrazol-4-yl)-[1,2,4]oxadiazol-3-yl]-cyclobutyl}-phenyl)-pyrazin-2-ylamine]",2.2 nM,44 nM,
"CC(C)(C#N)NC(=O)Cn1cc(-c2nc(C3(c4ccc(-c5cnc(N)nc5)cc4)CCC3)no2)cn1 [Example 223, 2-[4-(3-{1-[4-(2-Amino-pyrimidin-5-yl)-phenyl]-cyclobutyl}-[1,2,4]oxadiazol-5-yl)-pyrazol-1-yl]-N-(cyano-dimethyl-methyl)-acetamide]",1.8 nM,460 nM,
"Nc1ncc(-c2ccc(C3(c4noc(-c5cnn(CC(=O)NCC6CCCO6)c5)n4)CCC3)cc2)cn1 (stereo not drawn) [Example 224, 2-[4-(3-{1-[4-(2-Amino-pyrimidin-5-yl)-phenyl]-cyclobutyl}-[1,2,4]oxadiazol-5-yl)-pyrazol-1-yl]-N-(tetrahydro-furan-2-ylmethyl)-acetamide]",2.8 nM,64 nM,
"CS(=O)(=O)CCNC(=O)Cn1cc(-c2nc(C3(c4ccc(-c5cnc(N)nc5)cc4)CCC3)no2)cn1 [Example 225, 2-[4-(3-{1-[4-(2-Amino-pyrimidin-5-yl)-phenyl]-cyclobutyl}-[1,2,4]oxadiazol-5-yl)-pyrazol-1-yl]-N-(2-methanesulfonyl-ethyl)-acetamide]",0.89 nM,> 5000 nM,
"Nc1ncc(-c2ccc(C3(c4noc(-c5cnn(C6CCS(=O)(=O)C6)c5)n4)CCC3)cc2)cn1 (stereo not drawn) [Example 226, 5-[4-(1-{5-[1-(1,1-Dioxo-tetrahydro-1lambda6-thiophen-3-yl)-1H-pyrazol-4-yl]-[1,2,4]oxadiazol-3-yl}-cyclobutyl)-phenyl]-pyrimidin-2-ylamine]",1.2 nM,45 nM,
"NCCn1cc(-c2nc(C3(c4ccc(-c5cnc(N)nc5)cc4)CCC3)no2)cn1 [Example 227, 5-[4-(1-{5-[1-(2-Amino-ethyl)-1H-pyrazol-4-yl]-[1,2,4]oxadiazol-3-yl}-cyclobutyl)-phenyl]-pyrimidin-2-ylamine]",2.6 nM,240 nM,
"COCCNC(=O)Cn1cc(-c2nc(C3(c4ccc(-c5cnc(N)nc5)cc4)CCC3)no2)cn1 [Example 228, 2-[4-(3-{1-[4-(2-Amino-pyrimidin-5-yl)-phenyl]-cyclobutyl}-[1,2,4]oxadiazol-5-yl)-pyrazol-1-yl]-N-(2-methoxy-ethyl)-acetamide]",3.3 nM,160 nM,
"CC(=O)NCCn1cc(-c2nc(C3(c4ccc(-c5cnc(N)nc5)cc4)CCC3)no2)cn1 [Example 229, N-{2-[4-(3-{1-[4-(2-Amino-pyrimidin-5-yl)-phenyl]-cyclobutyl}-[1,2,4]oxadiazol-5-yl)-pyrazol-1-yl]-ethyl}-acetamide]",6 nM,410 nM,
"CSCCn1cc(-c2nc(C3(c4ccc(-c5cnc(N)nc5)cc4)CCC3)no2)cn1 [Example 230, 5-[4-(1-{5-[1-(2-Methylsulfanyl-ethyl)-1H-pyrazol-4-yl]-[1,2,4]oxadiazol-3-yl}-cyclobutyl)-phenyl]-pyrimidin-2-ylamine]",1.3 nM,64 nM,
"CS(=O)(=O)CCn1cc(-c2nc(C3(c4ccc(-c5cnc(N)nc5)cc4)CCC3)no2)cn1 [Example 231, 5-[4-(1-{5-[1-(2-Methanesulfonyl-ethyl)-1H-pyrazol-4-yl]-[1,2,4]oxadiazol-3-yl}-cyclobutyl)-phenyl]-pyrimidin-2-ylamine]",2.3 nM,61 nM,
"Nc1ncc(-c2ccc(C3(c4noc(-c5cnn(CCN6CCOCC6)c5)n4)CCC3)cc2)cn1 [Example 232, 5-[4-(1-{5-[1-(2-Morpholin-4-yl-ethyl)-1H-pyrazol-4-yl]-[1,2,4]oxadiazol-3-yl}-cyclobutyl)-phenyl]-pyrimidin-2-ylamine]",1.8 nM,26 nM,
"Nc1ncc(-c2ccc(C3(c4noc(-c5cnn(C6CCNCC6)c5)n4)CCC3)cc2)cn1 [Example 233, 5-(4-{1-[5-(1-Piperidin-4-yl-1H-pyrazol-4-yl)-[1,2,4]oxadiazol-3-yl]-cyclobutyl}-phenyl)-pyrimidin-2-ylamine]",9.8 nM,700 nM,
"COC1CCN(C(=O)Cn2cc(-c3nc(C4(c5ccc(-c6cnc(N)nc6)cc5)CCC4)no3)cn2)CC1 [Example 234, 2-[4-(3-{1-[4-(2-Amino-pyrimidin-5-yl)-phenyl]-cyclobutyl}-[1,2,4]oxadiazol-5-yl)-pyrazol-1-yl]-1-(4-methoxy-piperidin-1-yl)-ethanone]",3.5 nM,82 nM,
"CN(C(=O)Cn1cc(-c2nc(C3(c4ccc(-c5cnc(N)nc5)cc4)CCC3)no2)cn1)C1CCOCC1 [Example 235, 2-[4-(3-{1-[4-(2-Amino-pyrimidin-5-yl)-phenyl]-cyclobutyl}-[1,2,4]oxadiazol-5-yl)-pyrazol-1-yl]-N-methyl-N-(tetrahydro-pyran-4-yl)-acetamide]",1.7 nM,67 nM,
"COC1CN(C(=O)Cn2cc(-c3nc(C4(c5ccc(-c6cnc(N)nc6)cc5)CCC4)no3)cn2)C1 [Example 236, 2-[4-(3-{1-[4-(2-Amino-pyrimidin-5-yl)-phenyl]-cyclobutyl}-[1,2,4]oxadiazol-5-yl)-pyrazol-1-yl]-1-(3-methoxy-azetidin-1-yl)-ethanone]",5.6 nM,230 nM,
"Nc1ncc(-c2ccc(C3(c4noc(-c5cnn(CC(=O)NC6CCNCC6)c5)n4)CCC3)cc2)cn1 [Example 237, 2-[4-(3-{1-[4-(2-Amino-pyrimidin-5-yl)-phenyl]-cyclobutyl}-[1,2,4]oxadiazol-5-yl)-pyrazol-1-yl]-N-piperidin-4-yl-acetamide]",2 nM,> 5000 nM,
